# Measured values from patent US20200179488A1, “Secretin Receptor Agonists to Treat Diseases or Disorders of Energy Homeostasis” (Technische Universität München, priority 2016, published 2020).
# How the values were obtained:
# Protein Kinase A = test: SCT-stimulated respiration in primary brown adipocytes after pretreatment with the PKA inhibitor H89; type: cell-based, Mus musculus; conditions: H89 50 μM pretreatment (FIG. 10F)
# Method: F: Thermogenic effect of SCT depends on Protein Kinase A activity. Fold increase of basal leak respiration after stimulation with ISO, SCT and vehicle (assay medium) w/o proteinkinase A inhibitor H89 (50 μM). Inhibitor was injected together with olgio prior to addition of stimulators.
# (§1) Method: To test whether SCT can activate thermogenesis in brown adipocytes, we measured UCP1-mediated uncoupled respiration in cultured adherent intact primary brown adipocytes, according to a protocol recently established in our lab (Li Y, Fromme T, Schweizer S, Schöttl T, Klingenspor M. EMBO Rep. 2014 October; 15(10):1069-76. doi: 10.15252/embr.201438775; Li Y, Fromme T, Klingenspor M. Meaningful respirometric measurements of UCP1-mediated thermogenesis. Biochimie. 2017 March; 134:56-61. doi: 10.1016/j.biochi.2016.12.005.). The cellular oxygen consumption rate (OCR) of primary adipocytes was determined using an XF96 Extracellular Flux Analyzer (Seahorse Bioscience). […]
# All respiration assays were performed in the presence of bovine serum albumin to buffer free fatty acid levels in the respiration medium. Basal respiration was measured in untreated cells. […] UCP1 mediated uncoupled respiration was determined after isoproterenol or secretin stimulation. Maximum respiratory capacity was assessed after FCCP (Sigma-Aldrich) addition (1 μM). […]
# primary brown adipocytes = test: Microplate respirometry (oxygen consumption rate) in differentiated primary brown adipocytes of wildtype mice; type: cell-based, Mus musculus
# Method: For culturing primary adipocytes male 129S1/SvImJ mice ([…] or UCP1-KO mice and wildtype littermates) at the age of 5-6 weeks were used for the dissection of inguinal and epidydimal white adipose tissue and interscapular brown adipose tissue depots. The tissue was carefully minced and treated with collagenase for 45 min at 37° C. The homogenate was filtered through a 250 μm nylon mesh and centrifuged at 500 g to collect the stromal vascular fraction (SVF). The SVF cell pellet was rinsed and seeded into XF96 V3-PS cell culture microplate (Seahorse Bioscience). After reaching confluency, induction medium containing 10% fetal bovine serum (FBS), 0.5 mM isobutylmethylxanthine, 125 nM indomethacin, 1 mM dexamethasone, 850 nM insulin and 1 nM T3 was added. After 2 days of induction, cells were maintained in differentiation media (10% FBS, 850 nM insulin and 1 nM T3). Medium was changed every two days. Respiration was measured on day 7 of differentiation. For determination of mRNA levels cells were stimulated at the 7th day of differentiation for 6 hours with secretin (rat, Tocris, Art Nr 1919) or isoproterenol (Sigma-Aldrich, Art Nr. 16504-100MG) and harvested subsequently. Oxygen consumption rate (OCR) was measured at 37° C. using a microplate respirometer (XF96 extracellular flux analyzer, Seahorse Bioscience). At day 7, the differentiation medium was replaced with prewarmed, unbuffered assay medium (DMEM basal medium supplemented with 25 mM glucose, 2 mM sodium pyruvate, 31 mM NaCl, 2 mM GlutaMax and 15 mg/l phenol red, pH 7.4) containing 2% of essentially fatty acid free bovine serum albumin (BSA), and incubated at 37° C. in a room air incubator for 1 h. Basal respiration was measured in untreated cells. Coupled respiration was inhibited by oligomycin treatment (5 μM). […] Maximum respiratory capacity was assessed after FCCP (Sigma-Aldrich) addition (1 μM). Finally, mitochondrial respiration was blocked by antimycin A (Sigma-Aldrich) (5 μM) treatment and the residual OCR was considered to be due to non-mitochondrial reactions. Oxygen consumption rates were calculated using the Seahorse XF-96 software. Data were exported and reconstructed in GraphPad Prism 4.0 software. For each condition the lowest OCR after antimycin A addition was subtracted from all other values. Respiration rates following oligomycin addition were defined as basal OCR. For induction of OCR by isoproterenol, secretin or FCCP the highest values measured after addition of the respective molecule was used. The “OCR in % of basal OCR” and “OCR in % of FCCP OCR” were calculated as follows: Method: To test whether SCT can activate thermogenesis in brown adipocytes, we measured UCP1-mediated uncoupled respiration in cultured adherent intact primary brown adipocytes, according to a protocol recently established in our lab (Li Y, Fromme T, Schweizer S, Schöttl T, Klingenspor M. EMBO Rep. 2014 October; 15(10):1069-76. doi: 10.15252/embr.201438775; […]. Meaningful respirometric measurements of UCP1-mediated thermogenesis. Biochimie. 2017 March; 134:56-61. doi: 10.1016/j.biochi.2016.12.005.). The cellular oxygen consumption rate (OCR) of primary adipocytes was determined using an XF96 Extracellular Flux Analyzer (Seahorse Bioscience). Briefly, primary adipocytes were cultured and differentiated in XF96 microplates. At day 7 of differentiation, cells were washed once with prewarmed, unbuffered assay medium (DMEM basal medium supplemented with 25 mM glucose, 31 mM NaCl, 2 mM GlutaMax and 15 mg/l phenol red, pH 7.4) (basal assay medium) and then the medium was replaced with basal assay medium containing 1-2% essentially fatty acid free bovine serum albumin (BSA), and incubated at 37° C. in a room air incubator for 1 h. The drug injections ports of the sensor cartridges were loaded with the assay reagents at 10× in basal assay medium (no BSA). All respiration assays were performed in the presence of bovine serum albumin to buffer free fatty acid levels in the respiration medium. […]
# [1] = system: primary brown adipocytes from UCP1 knockout mice; test: Microplate respirometry (oxygen consumption rate) in primary brown adipocytes from UCP1 knockout mice; type: cell-based, Mus musculus
# Method: For culturing primary adipocytes male 129S1/SvImJ mice ([…] or UCP1-KO mice and wildtype littermates) at the age of 5-6 weeks were used for the dissection of inguinal and epidydimal white adipose tissue and interscapular brown adipose tissue depots. The tissue was carefully minced and treated with collagenase for 45 min at 37° C. The homogenate was filtered through a 250 μm nylon mesh and centrifuged at 500 g to collect the stromal vascular fraction (SVF). The SVF cell pellet was rinsed and seeded into XF96 V3-PS cell culture microplate (Seahorse Bioscience). After reaching confluency, induction medium containing 10% fetal bovine serum (FBS), 0.5 mM isobutylmethylxanthine, 125 nM indomethacin, 1 mM dexamethasone, 850 nM insulin and 1 nM T3 was added. After 2 days of induction, cells were maintained in differentiation media (10% FBS, 850 nM insulin and 1 nM T3). Medium was changed every two days. Respiration was measured on day 7 of differentiation. For determination of mRNA levels cells were stimulated at the 7th day of differentiation for 6 hours with secretin (rat, Tocris, Art Nr 1919) or isoproterenol (Sigma-Aldrich, Art Nr. 16504-100MG) and harvested subsequently. Oxygen consumption rate (OCR) was measured at 37° C. using a microplate respirometer (XF96 extracellular flux analyzer, Seahorse Bioscience). At day 7, the differentiation medium was replaced with prewarmed, unbuffered assay medium (DMEM basal medium supplemented with 25 mM glucose, 2 mM sodium pyruvate, 31 mM NaCl, 2 mM GlutaMax and 15 mg/l phenol red, pH 7.4) containing 2% of essentially fatty acid free bovine serum albumin (BSA), and incubated at 37° C. in a room air incubator for 1 h. Basal respiration was measured in untreated cells. […] Maximum respiratory capacity was assessed after FCCP (Sigma-Aldrich) addition (1 μM). […] Oxygen consumption rates were calculated using the Seahorse XF-96 software. […] For induction of OCR by isoproterenol, secretin or FCCP the highest values measured after addition of the respective molecule was used. The “OCR in % of basal OCR” and “OCR in % of FCCP OCR” were calculated as follows: Method: To test whether SCT can activate thermogenesis in brown adipocytes, we measured UCP1-mediated uncoupled respiration in cultured adherent intact primary brown adipocytes, according to a protocol recently established in our lab (Li Y, Fromme T, Schweizer S, Schöttl T, Klingenspor M. EMBO Rep. 2014 October; 15(10):1069-76. doi: 10.15252/embr.201438775; […]. Meaningful respirometric measurements of UCP1-mediated thermogenesis. Biochimie. 2017 March; 134:56-61. doi: 10.1016/j.biochi.2016.12.005.). The cellular oxygen consumption rate (OCR) of primary adipocytes was determined using an XF96 Extracellular Flux Analyzer (Seahorse Bioscience). […]
# UCP1 expression [2] = test: UCP1 mRNA expression (qRT-PCR) in primary adipocytes from inguinal white adipose tissue; type: cell-based, Mus musculus; conditions: 0.1 μM secretin or 0.5 μM isoproterenol, 6 hours, normalized to TFIIB (FIG. 4A)
# Method: (§2) For culturing primary adipocytes male 129S1/SvImJ mice ([…] or UCP1-KO mice and wildtype littermates) at the age of 5-6 weeks were used for the dissection of inguinal and epidydimal white adipose tissue and interscapular brown adipose tissue depots. The tissue was carefully minced and treated with collagenase for 45 min at 37° C. The homogenate was filtered through a 250 μm nylon mesh and centrifuged at 500 g to collect the stromal vascular fraction (SVF). The SVF cell pellet was rinsed and seeded into XF96 V3-PS cell culture microplate (Seahorse Bioscience). After reaching confluency, induction medium containing 10% fetal bovine serum (FBS), 0.5 mM isobutylmethylxanthine, 125 nM indomethacin, 1 mM dexamethasone, 850 nM insulin and 1 nM T3 was added. […] Respiration was measured on day 7 of differentiation. […] RNA was eluted in 50 μl nuclease-free water and RNA concentration was determined spectrophotometrically (Infinite 200 PRO NanoQuant, Tecan, Männedorf/Switzerland). Reverse transcription into cDNA was performed with 500 ng RNA in a final volume of 10 μl (Quantitect Reverse Transcription Kit, Quiagen, Hilden/Germany). qRT-PCR was conducted on 384 well plates in a total volume of 12.5 μl comprising 6.25 μl SensiMix SYBR No-ROX (Bioline, London/UK), 250 nM forward and reverse primers, and 1 μl template cDNA (LightCycler 480 System, Roche Diagnostics, Rotkreuz/Switzerland). […]
# UCP1 expression [3] = test: UCP1 mRNA expression (qRT-PCR) in primary adipocytes from interscapular brown adipose tissue; type: cell-based, Mus musculus; conditions: 0.1 μM secretin or 0.5 μM isoproterenol, 6 hours, normalized to TFIIB (FIG. 4B)
# Method: as §2
# adrenergic β-receptors = test: SCT- and ISO-stimulated respiration in primary brown adipocytes after propranolol pretreatment; type: cell-based, Mus musculus
# Method: SCT- and ISO-stimulated respiration after 1 h pretreatment with different concentrations propranolol, a non-selective blocker of adrenergic β-receptors.
# as §1, with “Bioscience). Briefly, primary adipocytes were cultured and differentiated in XF96 microplates.” for “Bioscience).”
# All respiration assays were performed in the presence of bovine serum albumin to buffer free fatty acid levels in the respiration medium. Basal respiration was measured in untreated cells. […] UCP1 mediated uncoupled respiration was determined after isoproterenol or secretin stimulation. Maximum respiratory capacity was assessed after FCCP (Sigma-Aldrich) addition (1 μM). […] Oxygen consumption rates were automatically calculated by the Seahorse XF-96 software. […]
# [4] = target: secretin receptor (mouse, on primary brown adipocytes) (mouse) (UniProt Q5FWI2); test: cell-based or functional assay
# Sequence of UniProt Q5FWI2 (Q5FWI2 29-447): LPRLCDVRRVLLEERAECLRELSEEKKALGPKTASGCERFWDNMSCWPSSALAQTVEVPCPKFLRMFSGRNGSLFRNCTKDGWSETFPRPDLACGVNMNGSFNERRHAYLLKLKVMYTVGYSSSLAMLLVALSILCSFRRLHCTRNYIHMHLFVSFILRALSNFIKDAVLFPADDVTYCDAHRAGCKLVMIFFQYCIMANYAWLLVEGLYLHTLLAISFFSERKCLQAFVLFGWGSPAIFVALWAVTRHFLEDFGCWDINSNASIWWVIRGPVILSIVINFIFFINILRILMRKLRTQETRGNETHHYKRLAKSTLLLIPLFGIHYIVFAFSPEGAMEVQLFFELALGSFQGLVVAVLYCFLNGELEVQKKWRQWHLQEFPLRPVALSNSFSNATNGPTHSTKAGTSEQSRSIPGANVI
molecule,measurement,setting,value
"O=S(=O)(NCCNCC=Cc1ccc(Br)cc1)c1cccc2cnccc12 [H89, N-[2-[[3-(4-Bromophenyl)-2-propenyl]amino]ethyl]-5-isoquinolinesulfonamide]",effect on the thermogenic effect of SCT,Protein Kinase A,completely blocked the thermogenic effect of SCT
"CC(C)NCC(O)c1ccc(O)c(O)c1 (stereo not shown) [isoproterenol, reference compound]",increase of OCR above basal OCR,"primary brown adipocytes; 0.5 μM, after oligomycin, day 7 of differentiation (FIG. 2B)",about 200%
same,uncoupled OCR as share of maximal uncoupled OCR induced by FCCP,"primary brown adipocytes; 0.5 μM, day 7 of differentiation (FIG. 2C)",about 75%
same,induction of oxygen consumption in cells from wildtype control mice,"primary brown adipocytes; 129/S1 background, FIG. 3",increase in oxygen consumption
same,stimulation of UCP1-mediated thermogenesis (uncoupled respiration),"primary brown adipocytes; SCT 10 nM, ISO 500 nM, N=5 (FIG. 10A)",activate UCP1-dependent thermogenesis
same,induction of respiration in cells from UCP1 knockout mice,"[1]; 129/S1 background, FIG. 3",lacking
same,response of respiration in UCP1 knockout brown adipocytes,"[1]; SCT 10 nM, ISO 500 nM (FIG. 10B)",did not respond
same,UCP1 mRNA expression in white adipocytes versus PBS,UCP1 expression [2],induction of UCP1 expression
same,UCP1 mRNA expression in brown adipocytes versus PBS,UCP1 expression [3],induced UCP1 expression to a similar level as secretin
CC(C)NCC(O)COc1cccc2ccccc12 (stereo not shown) [propranolol],effect on SCT stimulated respiration,adrenergic β-receptors; 1 h pretreatment with propranolol (1 μM; different concentrations in FIG. 10D),did not attenuate SCT stimulated respiration
same,effect on ISO stimulated respiration,"adrenergic β-receptors; 1 h pretreatment with propranolol, dose dependent (FIG. 10D)",blocking the effect of ISO
"secretin (rat, Tocris, Art Nr 1919) (from UniProt P11384 33-59) (peptide)","oxygen consumption rate (OCR) in primary brown adipocytes, increase above basal OCR, 0.5 µM secretin (% above basal OCR)",[4],200
same,"uncoupled OCR in primary brown adipocytes as a share of maximal uncoupled OCR induced by FCCP, 0.5 µM secretin (% of maximal uncoupled OCR)",[4],75
